{"source": "patent US20250032624A1", "about": "“SMALL MOLECULE DEGRADATION METHODS FOR TREATING ALS/FTD” (University of Florida Research Foundation, Incorporated, priority 2021, published 2025)", "key": {"[1]": {"system": "induced pluripotent stem cells (iPSCs)", "test": "Cell viability in iPSCs", "type": "cell-based, human", "settings": "doses up to 1 μM", "description": "Patient-derived LCLs were seeded overnight in 96-well plates (˜10^4 cells/well) and treated with compounds for 96 hours. Cell viability was measured using the CellTiter-Fluor™ Cell Viability Assay (Promega) per the manufacturer's protocol. iPSC cell viability was measured by seeding cells in Matrigel-coated 6-well plates with Basal medium (iPSC maintenance described above). After overnight incubation, the medium was replaced with fresh medium containing compounds diluted in 0.1% DMSO. Cells were treated with compound for 96 hours. Cell viability was measured using the AlamarBlue™ Cell Viability Reagent (DAL1025, Thermo Fisher Scientific) per the manufacturer's protocol. iPSN cell viability was measured by […]"}, "r(GGCC)8": {"system": "r(GGCC)8", "test": "Affinity by MST, base-paired control r(GGCC)8", "type": "binding", "settings": "base-paired control r(GGCC)8, concentrations up to 20 μM", "description": "Affinity measurements were performed by MST using a Monolith NT.115 system (NanoTemper Technologies) with 5′-Cy5-labeled r(G4C2)8 (SEQ ID NO: 1), 5′-Cy5-labeled d(G4C2)8 (SEQ ID NO: 1), and 5′-Cy5-labeled base pair control r(G2C2)4GAAA(G2C2)4 (SEQ ID NO: 49). All oligos were deprotected according to the manufacturer's recommended protocol. Samples were prepared as previously described^30. Briefly, RNA or DNA (5 nM) was folded in 1×MST Buffer (8 mM Na2HPO4, 185 mM NaCl, 1 mM EDTA) by heating at 95° C. for 5 minutes and slowly cooling to room temperature. Tween-20 was then added to a final concentration of 0.05% (v/v). Serial dilutions of compound in 1×MST Buffer containing 5 nM folded nucleic acid were then carried out to yield the desired compound concentrations. Samples were incubated for 90 minutes at room temperature and then loaded into premium capillaries (NanoTemper Technologies). The following parameters were used on the Monolith NT.115 system: 10% LED, 20-80% MST power, Laser-On time=30 s, Laser-Off time=5 seconds. Fluorescence was detected using excitation wavelengths of 605-645 nm and emission wavelengths of 680-685 nm. The resulting data were analyzed by thermophoresis analysis and fit using the quadratic binding equation in the MST analysis software (NanoTemper Technologies). The dissociation constant was determined using Equation 1. […]"}, "[2]": {"system": "poly(GP), poly(GA) and TDP-43 inclusions", "test": "Immunohistochemistry of cortex slices of +/+PWR500 mice", "type": "in vivo, mouse", "settings": "IHC", "description": "(§1) A total of 20 age- and gender-matched mice (12 +/+PWR500 [5 Male and 7 Female] and 8 WT [4 Male and 4 Female]), ranging from 18-21 weeks old were used in therapeutic efficacy studies (Table 4). Mice were treated with a single bolus injection of 33 nmol of compound 2 formulated in 1% (v/v) DMSO/99% water, administered by an intracerebroventricular injection (ICV). Three weeks post injection, mice were euthanized, and tissue was harvested for study.\nPostmortem brain tissue was harvested and sliced along the sagittal plane at the midline. The right hemisphere was stored for 48 hours in 10% neutral buffered formalin. Tissue processing, embedding and sectioning were then performed by the Scripps Florida Histology Core. Formalin-fixed tissue was processed on a Sakura Tissue-Tek VIP 5 paraffin processor. Tissue was first embedded in paraffin, sectioned at 4 μm, and then mounted on positively charged slides. Slides were stained with primary antibody (see below) using the Leica BOND-MAX platform. Slides were then subjected to the Leica Refine Detection Kit containing the secondary polymer, DAB chromagen, and the counterstain. Slides were dehydrated in graded alcohols and cleared in xylene, before being cover slipped with a permanent mounting medium (Cytoseal 60; Thermo Scientific)."}, "C9orf72 intron 1": {"system": "C9orf72 intron 1", "test": "C9orf72 transcript RT-qPCR in LCLs from healthy donors", "type": "cell-based, human", "description": "Measuring Levels of C9orf72 and C9orf72 Variants by RT-qPCR. LCLs and iPSCs were seeded in 6-well plates (˜10^6 cells in 2 mL of Basal medium) and incubated overnight at 37° C. with 5% CO2. LCLs were then treated with compound for 4 days without media changes; patient-derived iPSCs were seeded at ˜80% confluency and treated, as described above. Treatment with either a G4C2-ASO or Control-ASO (100 nM) was used as a control. ASO transfection was achieved using Lipofectamine RNAiMax (Life Technologies), following the manufacturer's protocol. After 4 days of treatment (with either compound or ASO), total RNA was extracted using the Quick-RNA Miniprep Kit (Zymo Research). RNA was quantified via Nanodrop and ˜1 μg of total RNA was reverse transcribed using qScript (Quantbio), according to the manufacturer's guidelines. RT-qPCR was performed on a QuantStudio™ Real-Time PCR Instrument (Applied Biosystems) using Power SYBR Green Master Mix (Applied Biosystems). Expression levels of mRNAs were normalized to GAPDH. See Table 2 for a list of primers used."}, "canonical translation": {"system": "canonical translation", "test": "Canonical translation (mCherry) in transfected HEK293T cells", "type": "cell-based", "description": "FIG. 8A is a schematic of co-transfection of a No ATG-d(G4C2)66-GFP (SEQ ID NO: 45) plasmid and an ATG-mCherry plasmid into HEK293T cells allows for RAN translation to be measured based on the GFP signal. The mCherry signal measures canonical translation. […] Error bars represent SD.\nHEK293T cells were cultured according to the methods described above. After reaching ˜80% confluency, HEK293T cells were batch-transfected, according to the manufacturer's protocol, in 100 mm dishes using the Lipofectamine 3000 transfection system (Thermo Fischer) for 5 hours with […] of a plasmid encoding r(G4C2)66-no ATG-nano-luciferase and 1 μg of a plasmid encoding SV40-Firefly luciferase (Life Technologies). Cells were seeded into a 384-well plate and incubated overnight. Compounds were treated in <0.1% DMSO final concentration for 24 hours. RAN and canonical translation were measured using a Dual-Luciferase® Reporter Assay System (Promega) following the manufacturer's protocol. Experiments were performed as biological triplicates (n=3). […] in untransfected cells were measured to determine the background signal."}, "β-actin": {"system": "β-actin", "test": "β-actin abundance in brain of -/-PWR500 (WT) mice", "type": "in vivo, mouse", "description": "as §1\nPostmortem brain tissue was harvested and sliced along the sagittal plane at the midline. The left hemisphere was frozen for RNA and protein analysis. Frozen brain tissue was homogenized in 300 μL Tris-EDTA buffer with a 1:5 w/v ratio of 2× protease and phosphatase inhibitors, as was done for RNA analysis of the tissue. Half of the homogenized tissue (150 μL) was mixed with 2× Lysis Buffer (50 mM Tris, pH 7.4, 250 mM NaCl, 2% (v/v) Triton X-100, and 4% (w/v) SDS) and sonicated at 1 second on/off intervals at 30% for a total of 15 seconds. Detergent from was removed using a Pierce™ Detergent Removal Spin Column 0.5 mL (Thermo Scientific) according to the manufacturer's protocol. Protein concentrations were then measured by BCA assay (Pierce Biotechnology) and poly(GP) was measured as described above for the electrochemical luminescent sandwich immunoassay."}}}
{"smiles": "CCOC(=O)C1=C(Nc2ccccc2)S/C(=C\\c2ccc(OCCOCCOCCOCCNC(=O)CCCOc3ccc4c(c3)c3cc5c(C(=O)N[C@H](C)CN(C)C)nccc5c(C)c3n4C)c(O)c2)C1=O", "note": "[ALS Compound Formula I]", "values": [{"measurement": "toxicity", "setting": "[1]", "value": "no significant toxicity"}, {"measurement": "saturable binding", "setting": "r(GGCC)8", "value": "No saturable binding"}, {"measurement": "TDP-43 inclusions", "setting": "[2]", "value": "significantly reduced"}, {"measurement": "poly(GA) inclusions", "setting": "[2]", "value": "significantly reduced"}, {"measurement": "poly(GP) inclusions", "setting": "[2]", "value": "significantly reduced"}, {"measurement": "effect on C9orf72 intron 1 levels", "setting": "C9orf72 intron 1", "value": "did not reduce"}, {"measurement": "effect on mCherry signal (canonical translation)", "setting": "canonical translation", "value": "no effect"}, {"measurement": "β-actin abundance", "setting": "β-actin", "value": "no reduction"}]}
